These results are taken from paper PMC2151622 (The Journal of General Physiology, 2007).

SMILES strings stand for the structures. Positions count from the first letter of the chain named.

Assay type in all cases: cell-based, rabbit
Test [1] has as its target T1, D444C-EAAC1 (Oryctolagus cuniculus, UniProt P31597, D444C).
T1 sequence (P31597 1-524 D444C): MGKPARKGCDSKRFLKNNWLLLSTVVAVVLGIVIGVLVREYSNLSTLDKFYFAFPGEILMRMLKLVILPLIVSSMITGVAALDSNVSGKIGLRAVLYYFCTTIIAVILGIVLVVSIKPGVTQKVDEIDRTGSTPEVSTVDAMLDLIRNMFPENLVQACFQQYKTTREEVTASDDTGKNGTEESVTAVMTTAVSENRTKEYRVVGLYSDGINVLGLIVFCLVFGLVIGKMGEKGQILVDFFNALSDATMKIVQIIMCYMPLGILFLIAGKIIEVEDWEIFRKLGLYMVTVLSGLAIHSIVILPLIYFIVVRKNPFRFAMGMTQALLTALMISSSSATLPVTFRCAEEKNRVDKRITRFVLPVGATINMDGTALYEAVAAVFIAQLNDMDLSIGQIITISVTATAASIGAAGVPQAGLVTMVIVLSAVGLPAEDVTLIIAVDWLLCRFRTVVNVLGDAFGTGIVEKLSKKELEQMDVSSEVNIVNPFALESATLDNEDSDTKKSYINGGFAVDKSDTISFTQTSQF
Briefly: Substrate-induced steady-state transport currents in oocytes expressing D444C. To be noted: 2 mM L-aspartate (Fig. 1 C), other concentrations not given.

Test [2] has as its target T2, D444C mutant EAAC1 (Oryctolagus cuniculus, UniProt P31597, D444C).
T2 sequence (P31597 1-524 D444C): T1 sequence (P31597 1-524 D444C)

Test [3] has as its target T3, WT-EAAC1 (Oryctolagus cuniculus, UniProt P31597).
T3 sequence (P31597 1-524): T1 sequence (P31597 1-524 D444C) with C444D
The conditions noted are these: WT-EAAC1 in HeLa cells; 5 mM unlabeled succinate.

Test [4] addresses T4, D444E mutant EAAC1 (Oryctolagus cuniculus, UniProt P31597, D444E).
T4 sequence (P31597 1-524 D444E): T1 sequence (P31597 1-524 D444C) with C444E

Test [5] addresses T3, WT-EAAC1. Briefly: Substrate-induced steady-state transport currents in oocytes expressing WT. To be noted: 2 mM.

In the case of `O=C(O)CCC(=O)O` [Succinate, succinate], the “Induction of steady-state transport currents” value is given as “unable to induce steady-state currents” in test [1] and “No steady-state transport currents” in test [5]. The figures for the “Inhibition of D-[3H]-aspartate uptake” value in test [2], in test [3] and in test [4] were “fully inhibited”, “In contrast to WT” and “much less sensitive”, respectively.
